# What was measured:
# Assay type in all cases: cell-based
# [1] = biological target: DYRK1A (Homo sapiens (Human), UniProt Q13627); experiment: DYRK1A activity Tau assay: pSer396 Tau in SH-SY5Y cells by ELISA / western blot; settings: overnight (16-18 h) exposure
# [2] = tested on: Wnt activity (Wnt-responsive SP5 promoter luciferase reporter in SW480 cells); experiment: Wnt activity reporter assay: SW480 cells with SP5 promoter-driven firefly luciferase; settings: Homo sapiens, 24 h after compound addition, read-out: Wnt inhibition
# Procedure, shortened: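 SW480 cells (APC-mutant colon line) stably carrying a lentiviral SP5-promoter (eight TCF/LEF sites) firefly luciferase reporter were plated at ~10,000 cells/well. Luminescence was normalized to DMSO-only cells and used for IC50.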
# [3] = tested on: primary human mesenchymal stem cells (hMSCs); experiment: Chondrogenesis assay in primary human mesenchymal stem cells, nodule count vs TGF-β3 positive control; settings: 6 days; for Conc (nM) of Max. activity: 6-point dose-response 2700 nM to 10 nM, dose at which maximum chondrogenesis activity was reached; for Max. Activity as % TGF-β3 activity: relative to TGF-β3 (10 ng/mL) positive control; for Conc (nM) of 100% TGF-β3 activity: concentration required to induce chondrogenesis equivalent to TGF-β3 (10 ng/mL)
# Source text: The above synthesized compounds were screened using primary human mesenchymal stem cells (hMSCs) to determine their ability to induce chondrogenesis (process by which cartilage is developed).
# Human Mesenchymal Stem Cell Culture:
# Primary human mesenchymal stem cells (hMSCs) were purchased from Lonza (Walkersville, Md.) and expanded in Mesenchymal Stem Cell Growth Media (Lonza). Cells between passage 3 and 6 were used for the experiments.
# Number of nodules in each well was normalized to the average of 3 DMSO treated wells on the same plate using Excel (Microsoft Inc.). The normalized averages (fold change over DMSO) of 3 replicate wells for each compound concentration were calculated. Due to solubility limitations of some of the compounds, curve fitting was incomplete leading to inaccurate EC50 determinations.
# Using TGF-β3 as a positive control, the concentration of test compounds required to induce equivalent levels of chondrogenesis is reported. In addition, the maximum activity of each compound and the respective dose that each compound reached maximum chondrogenesis activity is reported.
# [4] = tested on: primary human fibroblasts derived from IPF patients (LL29 cells); experiment: Inhibition of the fibrotic process: αSMA staining in TGF-β1 treated LL29 fibroblasts; settings: Fibroblast, 72 h, TGF-β1 10 ng/ml, 3 days, read-out: Inhibition of fibrosis IC50
# Experimental: The above synthesized compounds were screened using primary human fibroblasts (derived from IPF patients) treated with TGF-β1 to determine their ability to inhibit the fibrotic process.
# Each compound was dissolved in DMSO as a 10 mM stock and used to prepare compound source plates. […] LL29 cells were plated at 1,000 cells/well in 50 μl/well serum free F12 medium. […] Wells untreated with TGF-β1 were used as control for normalization and calculating IC50 values. Cells were incubated at 37° C. and 5% CO2 for 3 days. Cells were fixed using 4% formaldehyde (Electron Microscopy Sciences), washed 3 times with PBS followed by blocking and permeabilization using 3% Bovine Serum Albumin (BSA; Sigma) and 0.3% Triton X-100 (Sigma) in PBS. […] The IC50 values are reported.
structure (smiles),measurement,setting,value
"CC(C)Oc1ccc(NC(=O)c2n[nH]c3ccc(-c4cncc(CN5CCCCC5)c4)cc23)cn1 [Compound 67, N-(6-Isopropoxypyridin-3-yl)-5-(5-(piperidin-1-ylmethyl)pyridin-3-yl)-1H-indazole-3-carboxamide]",EC50,[1],3 nM
same,IC50,[2],41 nM
same,Conc (nM) of Max. activity,[3],2700 nM
same,Max. Activity as % TGF-β3 activity,[3],82%
same,IC50,[4],251 nM
"CC(C)CN1CCC(NC(=O)c2n[nH]c3ccc(-c4cccnc4)cc23)CC1 [Compound 91, N-(1-Isobutylpiperidin-4-yl)-5-(pyridin-3-yl)-1H-indazole-3-carboxamide]",EC50,[1],11 nM
same,Conc (nM) of Max. activity,[3],2700 nM
same,Conc (nM) of 100% TGF-β3 activity,[3],2700 nM
same,Max. Activity as % TGF-β3 activity,[3],120%
"O=C(Nc1ccnc(C(F)(F)F)c1)c1n[nH]c2ccc(-c3cncc(CN4CCCCC4)c3)cc12 [Compound 80, 5-(5-(Piperidin-1-ylmethyl)pyridin-3-yl)-N-(2-(trifluoromethyl)pyridin-4-yl)-1H-indazole-3-carboxamide]",EC50,[1],36 nM
same,IC50,[2],36 nM
same,Conc (nM) of Max. activity,[3],900 nM
same,Max. Activity as % TGF-β3 activity,[3],20%
same,IC50,[4],303 nM
"CN1CCN(c2ccc(NC(=O)c3n[nH]c4ccc(-c5cncc(NC(=O)c6cc(F)ccc6F)c5)cc34)cn2)CC1 [Compound 48, 5-(5-(2,5-Difluorobenzamido)pyridin-3-yl)-N-(6-(4-methylpiperazin-1-yl)pyridin-3-yl)-1H-indazole-3-carboxamide]",EC50,[1],2 nM
same,IC50,[2],31 nM
same,Conc (nM) of Max. activity,[3],2700 nM
same,Conc (nM) of 100% TGF-β3 activity,[3],2700 nM
same,Max. Activity as % TGF-β3 activity,[3],237%
same,IC50,[4],67 nM
"CC(C)NC(=O)c1n[nH]c2ccc(-c3cncc(CN4CCCC4)c3)cc12 [Compound 129, N-Isopropyl-5-(5-(pyrrolidin-1-ylmethyl)pyridin-3-yl)-1H-indazole-3-carboxamide]",EC50,[1],42 nM
same,Conc (nM) of Max. activity,[3],2700 nM
same,Conc (nM) of 100% TGF-β3 activity,[3],2700 nM
same,Max. Activity as % TGF-β3 activity,[3],108%
"Cc1ncc(NC(=O)c2n[nH]c3ccc(-c4cncc(CN5CCCCC5)c4)cc23)cn1 [Compound 98, N-(2-Methylpyrimidin-5-yl)-5-(5-(piperidin-1-ylmethyl)pyridin-3-yl)-1H-indazole-3-carboxamide]",EC50,[1],1 nM
same,Conc (nM) of Max. activity,[3],2700 nM
same,Conc (nM) of 100% TGF-β3 activity,[3],2700 nM
same,Max. Activity as % TGF-β3 activity,[3],161%
"CC(C)CC(=O)Nc1ccncc1NC(=O)c1n[nH]c2ccc(-c3cncc(CN4CCCCC4)c3)cc12 [Compound 73, N-(4-(3-Methylbutanamido)pyridin-3-yl)-5-(5-(piperidin-1-ylmethyl)pyridin-3-yl)-1H-indazole-3-carboxamide]",EC50,[1],57 nM
same,IC50,[2],25 nM
same,Conc (nM) of Max. activity,[3],900 nM
same,Max. Activity as % TGF-β3 activity,[3],65%
same,IC50,[4],1870 nM
"O=C(Nc1ccc(N2CC(F)(F)C2)nc1)c1n[nH]c2ccc(-c3cncc(CN4CCCCC4)c3)cc12 [Compound 71, N-(6-(3,3-Difluoroazetidin-1-yl)pyridin-3-yl)-5-(5-(piperidin-1-ylmethyl)pyridin-3-yl)-1H-indazole-3-carboxamide]",EC50,[1],2 nM
same,Conc (nM) of Max. activity,[3],900 nM
same,Conc (nM) of 100% TGF-β3 activity,[3],900 nM
same,Max. Activity as % TGF-β3 activity,[3],110%
"C[C@@H]1CN(c2ccc(NC(=O)c3n[nH]c4ccc(-c5cncc(CN6CCCCC6)c5)cc34)cn2)C[C@H](C)O1 [Compound 1141, N-(6-((2S,6R)-2,6-dimethylmorpholino)pyridin-3-yl)-5-(5-(piperidin-1-ylmethyl)pyridin-3-yl)-1H-indazole-3-carboxamide]",EC50,[1],1 nM
same,IC50,[2],3 nM
same,Conc (nM) of Max. activity,[3],2700 nM
same,Conc (nM) of 100% TGF-β3 activity,[3],2700 nM
same,Max. Activity as % TGF-β3 activity,[3],129%
same,IC50,[4],468 nM
"CC1CCN(Cc2cncc(-c3ccc4[nH]nc(C(=O)Nc5cccnc5)c4c3)c2)CC1 [Compound 82, 5-(5-((4-Methylpiperidin-1-yl)methyl)pyridin-3-yl)-N-(pyridin-3-yl)-1H-indazole-3-carboxamide]",EC50,[1],2 nM
same,IC50,[2],7 nM
same,Conc (nM) of Max. activity,[3],900 nM
same,Conc (nM) of 100% TGF-β3 activity,[3],900 nM
same,Max. Activity as % TGF-β3 activity,[3],109%
same,IC50,[4],129 nM
"O=C(Nc1cccnc1)c1n[nH]c2cc(F)c(-c3cncc(CN4CCCCC4)c3)cc12 [Compound 1153, 6-Fluoro-5-(5-(piperidin-1-ylmethyl)pyridin-3-yl)-N-(pyridin-3-yl)-1H-indazole-3-carboxamide]",EC50,[1],1 nM
same,Conc (nM) of Max. activity,[3],2700 nM
same,Conc (nM) of 100% TGF-β3 activity,[3],900 nM
same,Max. Activity as % TGF-β3 activity,[3],146%
